Measured values taken from patent US9645154B2, “Method for detecting cancer cell” (ARKRAY, Inc., priority 2010, dated 2017).

Tests used:
[1] = tested on: Breast cancer cell line MCF-7 and blood cells (leucocytes and erythrocytes); test: 2-NBDG incorporation observed visually under a fluorescence microscope; format: cell-based, human; conditions: sample 1, mixture of MCF-7 and blood cells, 37° C., 40 minutes
Procedure: From venous blood of a healthy person, a […] and precipitates were separated by centrifugation according to the conventional method. From the […], a leucocyte layer and an erythrocyte layer were partially collected, and then resuspended in PBS to prepare a leucocyte sample and a erythrocyte sample, respectively.
Breast cancer cell line MCF-7 (purchased from DS Pharma Biomedical Co., Ltd). was cultured at 37° C. with 5% (v/v) CO2 using α-MEM culture medium (Invitrogen, supplemented with 10% (v/v) FBS, 2 mM L-glutamine, 100 U/mL penicillin and 100 μg/mL streptomycin). Immediately before the test, the cells were harvested with 0.25% trypsin-EDTA and washed with PBS, thereby preparing a cancer cell line sample.
To each of 300 μL (4×10^5 cells/mL) of the cancer cell line, the blood cells (leucocytes and erythrocytes) or a mixture thereof was added 30 μL of 10 mM 2-[N-(7-nitrobenz-2-oxa-1,3-diazol-4-yl)amino]-2-deoxy-D-glucose (2-NBDG) (Wako Pure Chemical Industries, Ltd.) according to the description in Table 2, thereby preparing samples 1 to 7. These samples were then incubated at 37° C. for 40 minutes. To the sample to which 2-NBDG was not added, a corresponding amount of PBS was added instead of 2-NBDG.
After incubation, each sample was centrifuged at 2,000 rpm for 5 minutes (Hitachi Ltd.) to harvest the cells. To the harvested cells was added 10 μL of an anti-EpCAM antibody-PE (R&D systems), and the mixture was allowed to stand for 30 minutes in the cool and dark place.
After 30 minutes, the mixture was washed with 1,000 μL of PBS, and the cells were harvested by centrifugation at 2000 rpm for 5 minutes in accordance with the conventional method.
The harvested cells were resuspended in 50 μL of PBS, and the entire volume thereof was transferred to a 96-well plate, thereby preparing an observation sample.
Each of the observation samples was observed under a fluorescence microscope (Nikon Corp.), and an amount of 2-NBDG incorporated was visually observed.

[2] = tested on: human colon adenocarcinoma cells (SW620); test: Aminolevulinic acid (with FeCl2 and ascorbic acid) labeling, fluorescence microscopy image analysis (positive rate); format: cell-based; conditions: hemolyzed, 0.3 mM, 60 min, 37° C., threshold value 207
From the text: (§1) The number of the cells was counted using a hemacytometer in accordance with the conventional method, and then 10^5 to 10^6 cells per sample (cell suspension) was aliquoted. The sample was centrifuged to remove the supernatant. Subsequently, aminolevulinic acid 5-AMINOLEVULINATE HYDROCHLORIDE (trade name, Cosmo Bio Co., Ltd., at the final concentration given in Table 7 or 8) dissolved in Dulbecco's PBS (+) and FeCl2 and ascorbic acid having the same concentration as that of aminolevulinic acid, respectively, were added thereto, and the cells were suspended well. The number of the cells was adjusted, and then the cells were added dropwise to a 384-well plate. The plate was centrifuged to spin down the cells. The image was captured with a fluorescence microscope (Nikon Corp.).
(§2) The wavelengths for the fluorescence filter set: EX (excitation wavelength): 402±7.5, DM: 430 or longer, BA (fluorescence wavelength): 625±15.
(§3) The acquired images were analyzed using an image analysis software NIS-ELEMENTS (trade name, Nikon Corp.) to evaluate the fluorescence intensity of the cell.
(§4) In a manner similar to Example 4, each of human breast adenocarcinoma cells (Cell line name: MCF-7; DS Pharma Biomedical Co., Ltd.), human colon adenocarcinoma cells (Cell line name: SW620; DS Pharma Biomedical Co., Ltd.), human prostate cancer cells (Cell line name: PC3; DS Pharma Biomedical Co., Ltd.), human alveolar epithelial cancer cells (Cell line name: NCI-H358; DS Pharma Biomedical Co., Ltd.), human gastric cancer cells (Cell line name: SNU-1; ATCC) and human fibrosarcoma cells (Cell line name: HT1080; DS Pharma Biomedical Co., Ltd.) was detected with aminolevulinic acid.

[3] = tested on: human fibrosarcoma cells (HT1080); test: as above; format: cell-based; conditions: hemolyzed, 0.3 mM, 60 min, 37° C., threshold value 203
From the text: as §1, §2, §3, §4

[4] = tested on: human breast adenocarcinoma cells (MCF-7); test: as above; format: cell-based; conditions: hemolyzed, 0.3 mM, 60 min, 37° C., threshold value 268
From the text: as §1, §2, §3, §4

[5] = tested on: human alveolar epithelial cancer cells (NCI-H358); test: as above; format: cell-based; conditions: hemolyzed, 0.3 mM, 60 min, 37° C., threshold value 212
From the text: as §1, §2, §3, §4

[6] = tested on: human breast adenocarcinoma cells (MCF-7); test: Fluorescence values of cell suspension reacted with aminolevulinic acid (i-densy); format: cell-based; conditions: 1 mM, 37° C.
From the text: In accordance with the conventional method, human breast adenocarcinoma cells (cell line name: MCF-7; DS Pharma Biomedical Co., Ltd.) in culture was harvested with trypsin (Invitrogen). The cancer cell suspension harvested was centrifuged, and the supernatant was removed. The cells were resuspended with Dulbecco's PBS (+) (Nissui Pharmaceutical Co., Ltd.) and centrifuged, and the supernatant was removed again.
The number of the cells was counted using a hemacytometer in accordance with the conventional method, and then 2.8×10^5 cells per sample was aliquoted. […]
The fluorescence values of the cell suspension were measured using an i-densy (ARKRAY, Inc) at 15 minutes, 30 minutes, 60 minutes and 90 minutes after the start of the reaction. Conditions for fluorescence value measurement are as follows: 40° C. in the temperature regulated and light-intensity mode, Gain “3”, LED1 (390±20 nm for excitation)—PD3 (642.5±57.5 nm for detection).
In FIG. 7, the vertical axis represents fluorescence values, and the horizontal axis represents the reaction time. The solid squares represent fluorescence values obtained from the sample using Dulbecco's PBS (−) containing no Mg and Ca ions. The solid triangles represent fluorescence values obtained from the sample using Dulbecco's PBS (+) containing Mg and Ca ions. […]

O=[N+]([O-])c1ccc(N[C@H]2C(O)O[C@H](CO)[C@@H](O)[C@@H]2O)c2nonc12 (stereo partly drawn) [2-NBDG, 2-[N-(7-nitrobenz-2-oxa-1,3-diazol-4-yl)amino]-2-deoxy-D-glucose]
fluorescence image of erythrocyte cell [1]: not observed at all | fluorescence intensity of the leucocyte cell image relative to the cancer cell [1]: equal to or less than half the fluorescence intensity of the cancer cell | observation of the cancer cell line in the fluorescence image ([1]; FIGS. 4 to 6): clearly observed

NCC(=O)CCC(=O)O [aminolevulinic acid, 5-amino-4-oxopentanoic acid]
Positive rate (Cancer cells) [2]: 97.0% | Positive rate (Cancer cells) [3]: 94.6% | Positive rate (Cancer cells) [4]: 86.7% | Positive rate (Cancer cells) [5]: 94.4% | reactivity of aminolevulinic acid (fluorescence values of the cell suspension) ([6]; 15 to 90 minutes, Dulbecco's PBS (+) containing Mg and Ca ions versus PBS (−), FIG. 7): can be improved | reactivity of aminolevulinic acid (fluorescence values of the cell suspension) ([6]; Dulbecco's PBS (+) with Mg and Ca ions plus 10 μM ENDO-PORTER, FIG. 8): further improves the reactivity
